# Measurements as given in patent US20140271727A1, “METHOD OF USING AN ANTIDEPRESSANT FOR INCREASING IMMUNITY OF A SUBJECT AND TREATING CANCER” (NATIONAL YANG-MING UNIVERSITY, priority 2013, published 2014).
# Assays:
# [1] = mouse, in vivo
# Experimental: Second, all animal study protocols were approved by the Institutional Animal Care and Use Committee (IACAU) of National Yang Ming University. Mirtazapine (0.25 mg) was dissolved in 0.05 ml of 0.9% NaCl plus 0.5% absolute ethanol for each mouse (i.e. 10 mg/kg.) Male BALB/c mice (initial weights 25±2 g, and purchased from the National Laboratory Animal Center, Taipei, Taiwan) were housed in the cages, five mice per cage, under a 12:12 h reverse light/dark cycle with lights off at 6 pm Animals were handled and weighed daily for a week to reduce any non-specific stress responses. […] “Wild-type” means the mice are monitored without tumor inoculation and mirtazapine treatment, drug means the mice are monitored with continuous mirtazapine treatment but without tumor inoculation, never means the mice are monitored with tumor inoculation and daily 0.05 ml of 0.9% NaCl plus 0.5% absolute ethanol treatment but without mirtazapine treatment, always means the mice are monitored with mirtazapine treatment initiated 2 weeks before the tumor inoculation, and concurrent means the mice are monitored with tumor inoculation and mirtazapine treatment on the same day, and after means the mice are monitored with mirtazapine treatment initiated 2 weeks post the tumor inoculation. […]
# IL-12p70 [2] = assay: Serum sIL-12 in SCID mice; type: in vivo, mouse; details: SCID mice after mirtazapine treatment
# Source text: Also, Applicant divides other six-weeks-old immunodeficient male SCID mice (purchased from the National Laboratory Animal Center, Taiwan) into two groups, such as the group named “never-SCID” (hereafter called “never-SCID”) and the group named “always-SCID” (hereafter called “always-SCID”), as control groups for verifying the involvement of the immune system in the inhibition of the tumor growth by mirtazapine. Never-SCID means that the mice are monitored with tumor inoculation but without mirtazapine treatment, and always-SCID means the mice are monitored with mirtazapine treatment initiated 2 weeks before tumor inoculation. As to the quantification of interleukin-12 (hereafter called “IL-12”), the whole blood withdrawn from the pouch of each mouse was centrifuged at 600×g for 20 min, and serum was collected. The serum IL-12p70 (sIL-12) level was determined using an ELISA kit (R&D Systems, Taiwan). Identification for the lymph node cluster of differentiated CD4+ T helper and CD8+T-cytotoxic lymphocyte subsets was assayed. Briefly, the lymphocytes isolated from the lymph nodes of groins of mice were stained with phycoerythrin-conjugated antimouse CD4 (CD4-PE) monoclonal antibody and peridininchlorophyll-protein-complex-conjugated anti-mouse CD8 (CD8-PerCP) monoclonal antibody (BioLegend, USA). Lymphocyte subsets were identified by FACS analysis using a FACS Calibur flow cytometer. […]
# TNF-α = assay: Serum TNF-α ELISA; type: in vivo, mouse; details: tumor-bearing mice with vs without mirtazapine; weekly up to 6 weeks post tumor inoculation
# Experimental: As to the quantification of TNF-α, the whole blood withdrawn from the pouch of each mouse once a week for up to 6 weeks was centrifuged at 600×g for 20 min, and serum was collected. The serum TNF-α level was evaluated with an ELISA kit (eBioscience, USA).
# IFN-γ = IFN-γ level in tumor by ELISA; type: in vivo, mouse; details: tumor lysate 6 weeks after tumor inoculation, 2 mg tumor protein
# Experimental: And then, the level of IFN-γ in the tumor was determined using an ELISA kit (R&D Systems, Taiwan). Briefly, 6 weeks after tumor inoculation, the mice were sacrificed and the tumors were quickly removed and minced, then added with lysis buffer containing 1% protease inhibitor cocktail (T-PER tissue protein extraction reagent, Thermo Scientific, USA). After sonication, the cell mixture was centrifuged with 15000 rpm (Kubota centrifuge 1700, Japan) at 4° C. for 10 min The supernatant was collected for the protein quantification using bovine serum albumin as the standard. Two mg of the tumor proteins was used for the quantification of IFN-γ.
# IL-12p70 [3] = assay: Serum IL-12p70 (sIL-12) ELISA in BALB/c mice; type: in vivo, mouse
# Experimental: Second, all animal study protocols were approved by the Institutional Animal Care and Use Committee (IACAU) of National Yang Ming University. Mirtazapine (0.25 mg) was dissolved in 0.05 ml of 0.9% NaCl plus 0.5% absolute ethanol for each mouse (i.e. 10 mg/kg.) Male BALB/c mice (initial weights 25±2 g, and purchased from the National Laboratory Animal Center, Taipei, Taiwan) were housed in the cages, five mice per cage, under a 12:12 h reverse light/dark cycle with lights off at 6 pm Animals were handled and weighed daily for a week to reduce any non-specific stress responses. And then, please refer to FIG. 1A and FIG. 1B, FIG. 1A and FIG. 1B are diagrams showing the experimental designs according to an embodiment of the present invention. […] “Wild-type” means the mice are monitored without tumor inoculation and mirtazapine treatment, drug means the mice are monitored with continuous mirtazapine treatment but without tumor inoculation, never means the mice are monitored with tumor inoculation and daily 0.05 ml of 0.9% NaCl plus 0.5% absolute ethanol treatment but without mirtazapine treatment, always means the mice are monitored with mirtazapine treatment initiated 2 weeks before the tumor inoculation, and concurrent means the mice are monitored with tumor inoculation and mirtazapine treatment on the same day, and after means the mice are monitored with mirtazapine treatment initiated 2 weeks post the tumor inoculation. That is, the mice were assayed on day 22 for behaviors, and then sacrificed for the measurement of lymphocyte subsets and performed with ex vivo autoradiography.
# As to the quantification of interleukin-12 (hereafter called “IL-12”), the whole blood withdrawn from the pouch of each mouse was centrifuged at 600×g for 20 min, and serum was collected. The serum IL-12p70 (sIL-12) level was determined using an ELISA kit (R&D Systems, Taiwan). Identification for the lymph node cluster of differentiated CD4+ T helper and CD8+T-cytotoxic lymphocyte subsets was assayed. Briefly, the lymphocytes isolated from the lymph nodes of groins of mice were stained with phycoerythrin-conjugated antimouse CD4 (CD4-PE) monoclonal antibody and peridininchlorophyll-protein-complex-conjugated anti-mouse CD8 (CD8-PerCP) monoclonal antibody (BioLegend, USA). Lymphocyte subsets were identified by FACS analysis using a FACS Calibur flow cytometer. Immunohistochemistry (IHC) of CD4 and CD8 was also performed on day 42 post the tumor inoculation. Tumors were then removed, paraffin embedded, and […] sectioning was performed. The sections were immunohistostained with antibodies against CD4 (BioLegend, USA) and CD8 (BioLegend, USA), respectively. The procedures of immunohistostaining were followed the protocols provided with the IHC kit (Millipore, USA). All images were digitally captured on a Scanscope CS system (Aperio, USA).
# CT26/luc tumor = CT26/luc tumor growth in SCID mice; type: in vivo, mouse; details: always-SCID vs never-SCID
# Source text: Also, Applicant divides other six-weeks-old immunodeficient male SCID mice (purchased from the National Laboratory Animal Center, Taiwan) into two groups, such as the group named “never-SCID” (hereafter called “never-SCID”) and the group named “always-SCID” (hereafter called “always-SCID”), as control groups for verifying the involvement of the immune system in the inhibition of the tumor growth by mirtazapine. Never-SCID means that the mice are monitored with tumor inoculation but without mirtazapine treatment, and always-SCID means the mice are monitored with mirtazapine treatment initiated 2 weeks before tumor inoculation. As to the tumor growth, it was monitored using a digital caliper twice a week. The tumor volume was calculated according the following formula: 0.5236×length×width×thickness Bioluminescence imaging (hereafter called “BLI”) used for tumor size tracking was performed with an IVIS50 animal imaging system (Xenogen Corp., USA).
smiles,measurement,setting,value
CN1CCN2c3ncccc3Cc3ccccc3C2C1 (stereo not shown) [mirtazapine],body weight change (general toxicity),[1],no significant body weight change
same,increase of sIL-12 level in SCID mice,IL-12p70 [2],not found
same,serum TNF-α level,TNF-α,no significant difference
same,IFN-γ in tumor,IFN-γ; group Always,85.35 ± 4.5 pg/mL
same,IFN-γ in tumor,IFN-γ; group Concurrent,39.42 ± 7.42 pg/mL
same,IFN-γ in tumor,IFN-γ; group after,19.60 ± 1.13 pg/mL
same,sIL-12 concentration increase,IL-12p70 [3]; group after (never: 13 folds),16 folds
same,sIL-12 concentration,"IL-12p70 [3]; group after, 6 weeks post tumor inoculation",dropped to the control level
same,sIL-12 concentration increase to peak level,"IL-12p70 [3]; group always, peak at 1 wk post tumor cell inoculation",18 folds
same,sIL-12 concentration increase,IL-12p70 [3]; group concurrent (never: 13 folds),17 folds
same,sIL-12 concentration increase to peak level,"IL-12p70 [3]; group drug (no tumor), peak at 0 wk post tumor cell inoculation",13 folds
same,sIL-12 concentration,"IL-12p70 [3]; group drug, 4 wks post tumor cell inoculation, never 7 pg/ml",42 pg/mL
same,tumor inhibition effect in SCID mice,CT26/luc tumor,not found
